The numbers were not newly measured in publication PMC10202811 (Nature Medicine, 2023), which cites them from elsewhere.

Series [1] concerns inflammatory myofibroblastic tumors. The following applies: cited from earlier work.
The subject of another series is ALK-driven malignancies. Also noted: method as in PMID 34780709. The following applies: children, 6/30; cited from earlier work.

As for `C[C@@H](Oc1cc(-c2cnn(C3CCNCC3)c2)cnc1N)c1c(Cl)ccc(F)c1Cl` [crizotinib], the RR in series [1] is reported as 86%.

As for `Cc1cc(Nc2ncc(Cl)c(Nc3ccccc3S(=O)(=O)C(C)C)n2)c(OC(C)C)cc1C1CCNCC1` [ceritinib], in the series with ALK-driven malignancies, the “RR (complete/partial)” value was 20%.
